In test [1] the test system is Plasmodium falciparum. In words: ST_JUDE: Plasmodium falciparum 3D7 EC50 (uM) as measured by SYBR green dye. Type of test: functional, organism-based.
In test [2] the test system is Plasmodium falciparum. In words: ST_JUDE: Plasmodium falciparum K1 EC50 (uM) as measured by SYBR green dye. The format is functional, organism-based.

Among the data in ChEMBL document CHEMBL1154198, “Chemical genetics of Plasmodium falciparum” (Nature, 2010) are EC50 values, retold here.

Molecules are shown by their SMILES.

What is called EC50 is the concentration that produces a half-maximal response. Read a low EC50 as higher potency in that assay. As to `Cc1ccc(O)c(-n2cc3c(c2-c2cccc([N+](=O)[O-])c2)c(=O)n(C)c(=O)n3C)c1`, the results for the EC50 in test [1] and in test [2] were 4.89 µM and 4.79 µM, respectively.
For the compound `CCCC(=O)NC(c1ccccc1Cl)c1cc(Cl)c2cccnc2c1O` (stereo not given), the half-maximal effective concentration (EC50) in test [1] and in test [2] was over 15 µM in each case.
Turning to `COc1cccc(Nc2nc(NCC3CCCO3)c3ccccc3n2)c1` (stereo not given), the concentration for a half-maximal effect (EC50) in test [1] worked out at 1.06 µM; in test [2] it was 1.72 µM.
The corresponding values for `Cc1cc(C)cc(Nc2nc(NCC3CCCO3)c3ccccc3n2)c1` (stereo not given) are 1.6 µM and 1.79 µM.
Taken in the same sequence, the figures for `CCc1cccc(NC(=O)c2cc3c(-c4ccc(OC)c(OC)c4)nn(C)c3s2)c1` were over 15 µM and over 15 µM.
On to `COc1cccc(C(=O)Nc2ccc(-c3nnc(-c4ccco4)o3)cc2)c1`, for which the EC50 in test [1] and in test [2] was over 15 µM in each case.
`COc1cc(Cl)c(NC(=O)c2cc3ccccc3cc2O)c(OC)c1`: the half-maximal effective concentration (EC50) in test [1] and in test [2] was over 15 µM throughout.
For the compound `CCC1(C)CC(CCNCc2ccc(F)cc2)(c2ccc(C)cc2)CCO1` (stereo not given), the EC50 in test [1] was determined as 1.11 µM; in test [2], 0.974 µM.
Consider `CC(C)COc1ccc(COC2C(C3COC(C)(C)O3)OC3OC(C)(C)OC32)cc1` (stereo not given), for which the values for the EC50 in test [1] and in test [2] were 7.79 µM and over 15 µM, respectively.
The corresponding values for `Nc1ccc(-c2nc3cc(Oc4ccc5[nH]c(-c6ccc(N)cc6)nc5c4)ccc3[nH]2)cc1` are 1.47 µM and 1.69 µM.
The corresponding values for `CS(=O)(=O)N(CC(=O)Nc1ccccc1Sc1ccccc1)c1ccc(Cl)c(Cl)c1` are 4.06 µM and 5.95 µM.
Taken in the same sequence, the figures for `Cc1onc(-c2ccccc2)c1C(=O)Nc1cccc(Br)c1` were over 15 µM and over 15 µM.
Regarding `Cc1ccc2c(c1)-c1c(cnn1CC(=O)Nc1cccc(C#N)c1)CO2`, the 50% effective concentration (EC50) is over 15 µM in test [1] and 5.38 µM in test [2].
On to `CCCOc1cccc(C2c3c(-c4ccccc4O)n[nH]c3C(=O)N2CCCOCC)c1` (stereo not given), for which the 50% effective concentration (EC50) in test [1] is over 15 µM; in test [2] it was 7.84 µM.
Taken in the same sequence, the figures for `CCOc1cc(Br)c(C2NC(=O)NC(c3ccccc3)=C2C(C)=O)cc1OCC` (stereo not given) were 1.51 µM and over 15 µM.
Taken in the same sequence, the figures for `Cc1ccc2c(c1)N(C)/C(=C/c1cccc[n+]1CCO)S2` were 1.78 µM and 1.56 µM.
The corresponding values for `Cc1cccc2sc(N(Cc3cccnc3)C(=O)c3ccco3)nc12` are 6.82 µM and 5.31 µM.
As for `O=C(Nc1cc(OCC(F)(F)F)cc(OCC(F)(F)C(F)F)c1)c1cccnc1`, the EC50 amounted to 3.84 µM in test [1] and 4.42 µM in test [2].
Take `O=S(=O)(/N=C(\Nc1ccc(Br)cc1)c1ccccc1)c1ccccc1`: the EC50 in test [1] and in test [2] was over 15 µM each time.
Consider `COc1ccc(CN2CCCN(C)CC2)cc1OCCC1CCCCN1C(=O)/C=C/c1cccs1` (stereo not given), for which the concentration for a half-maximal effect (EC50) in test [1] is 3.98 µM; in test [2], 1.48 µM.
Take `Cc1c(Cl)ccc2c(C(=O)Nc3ccc(S(=O)(=O)N4CCOCC4)cc3)cc(-c3cccnc3)nc12`: the EC50 in test [1] was 1.22 µM; in test [2], over 15 µM.
The corresponding values for `CCCCC(=O)NC(c1ccc(Cl)cc1Cl)c1ccc2cccnc2c1O` (stereo not given) are over 15 µM and 5.3 µM.
Taken in the same sequence, the figures for `Cc1cccc(-c2c3c(=O)n(C)c(=O)n(C)c3cn2-c2cc(Cl)ccc2O)c1` were over 15 µM and over 15 µM.
The corresponding values for `O=[N+]([O-])c1cccc(NC(=S)Nc2ccc(OC(F)F)c(Cl)c2)c1` are 6.66 µM and 4.46 µM.
As for `O=[N+]([O-])c1ccc(C2Nc3c(O)ccc(Br)c3C3C=CCC32)cc1` (stereo not given), the results for the EC50 in test [1] and in test [2] were 7 µM and 2.71 µM, respectively.
The corresponding values for `O=C(N/N=c1/oc2ccc(Br)cc2cc1-c1nc2ccccc2[nH]1)c1ccncc1` are 4.71 µM and over 15 µM.
Taken in the same sequence, the figures for `COc1ccc(C2C(C#N)=C(C(C)(C)C)Nc3ncnn32)cc1` (stereo not given) were 8.08 µM and over 15 µM.
The corresponding values for `Cc1cccc(-n2ccnc2SCC(=O)Nc2cc(C(F)(F)F)ccc2Cl)c1` are over 15 µM and over 15 µM.
In the case of `CN1/C(=C/c2cccc[n+]2CCO)Sc2ccccc21`, the 50% effective concentration (EC50) was found to be 1.79 µM in test [1] and 1.2 µM in test [2].
Taken in the same sequence, the figures for `Cc1cc(C)c2c(=O)cc(C(Cl)(Cl)Cl)oc2c1` were over 15 µM and over 15 µM.
The corresponding values for `COc1ccc(C)cc1NC(=S)N1CCN(c2ccc([N+](=O)[O-])cc2)CC1` are 1.34 µM and 1.92 µM.
The corresponding values for `C=CCNc1c2c(nc3ccccc13)CCC2` are 3.24 µM and 1.15 µM.
For the compound `CSc1ccccc1C(=O)Nc1nc(-c2ccccn2)cs1`, the figures for the EC50 in test [1] and in test [2] were 6.82 µM and 2.04 µM, respectively.
`CC(C)c1ccc(/C=C2\Oc3c(ccc(O)c3CN(C)C)C2=O)cc1`: the figures for the EC50 in test [1] and in test [2] were 1.01 µM and 0.615 µM, respectively.
With `Oc1c(C(Nc2ccccn2)c2ccc(Cl)cc2)ccc2cccnc12` (stereo not given), the EC50 in test [1] was 2.72 µM; in test [2] it was 4.11 µM.
The corresponding values for `CC(=O)c1c(C(C)=O)c(C)n(Cc2ccc(Cl)cc2)c1C` are over 15 µM and 6.63 µM.
Taken in the same sequence, the figures for `CN1CCN(c2ccc(-c3cccc(NC(=O)c4cccc([N+](=O)[O-])c4)c3)nn2)CC1` were over 15 µM and 3.83 µM.
`O=C(NC(NC(=S)Nc1ccc(Cl)cc1)C(Cl)(Cl)Cl)c1ccccc1F` (stereo not given): the EC50 amounted to 2.73 µM in test [1] and 4.07 µM in test [2].
For `Oc1ccc(Br)cc1CN1CCN(Cc2ccccc2C(F)(F)F)CC1`, the results for the 50% effective concentration (EC50) in test [1] and in test [2] were 1.88 µM and 0.45 µM, respectively.
The corresponding values for `O=C(Nc1ccc(Cl)cc1)C1c2ccccc2C(=O)N(C2CCCC2)C1c1cccs1` (stereo not given) are 0.556 µM and 1.07 µM.
Taken in the same sequence, the figures for `CS(=O)(=O)Nc1ccc2c(c1)CCCN2C(=O)c1cccs1` were over 15 µM and 7.55 µM.
With `CCCCc1ccc2nc(C)c(CN3CCC(C)CC3)c(O)c2c1`, the EC50 in test [1] and in test [2] was over 15 µM in each case.
For the compound `Cc1ccc(S(=O)(=O)Nc2ccc(Nc3nc(C)cc(N4CCCC4)n3)cc2)cc1`, the EC50 came out at 0.919 µM in test [1] and 7.18 µM in test [2].
For `COc1ccc(S(=O)(=O)NC2=C/C(=N\c3ccc(NC(C)=O)cc3)C(=O)c3ccccc32)cc1`, the concentration for a half-maximal effect (EC50) in test [1] amounted to 5.75 µM; in test [2], 2.87 µM.
With `COc1ccc(CCNC(=S)Nc2ccccc2Cl)cc1`, the 50% effective concentration (EC50) in test [1] is 4.88 µM; in test [2], 4.8 µM.
The corresponding values for `O=C(Nc1cccc(Cl)c1)c1cc2ccccc2cc1O` are over 15 µM and 0.568 µM.
With `Cc1nn(-c2ccccc2)c2ncc(C(=O)Nc3cccc(Cl)c3)c(O)c12`, the results for the EC50 in test [1] and in test [2] were over 15 µM and 4.31 µM, respectively.
Taken in the same sequence, the figures for `O=C(Nc1ccc(Cl)cc1C(O)c1ccccc1)c1cnn2c1NC(c1ccccc1)CC2C(F)(F)F` (stereo not given) were 0.765 µM and 0.5 µM.
Taken in the same sequence, the figures for `COc1cccc(NC(=O)Cn2c(C)c(C(=O)C(F)(F)F)c3ccccc32)c1` were over 15 µM and 1.62 µM.
Taken in the same sequence, the figures for `CCOc1cccc(C2CC(=O)NC3=C2C(=O)CC(c2ccccc2Cl)C3)c1` (stereo not given) were 3.72 µM and 3.11 µM.
For the compound `O=C(C1CCCO1)N1N=C(c2c(O)nc3ccc(Cl)cc3c2-c2ccccc2)CC1c1ccco1` (stereo not given), the EC50 in test [1] and in test [2] was over 15 µM in each case.
For the compound `O=C(Nc1ccccc1F)C1c2ccccc2C(=O)N(C2CCCC2)C1c1cccs1` (stereo not given), the EC50 in test [1] was 1.77 µM; in test [2], 2.55 µM.
Taken in the same sequence, the figures for `CCOc1ccc(/C=c2\sc3n(c2=O)CN(c2cccc(F)c2)CN=3)cc1` were over 15 µM and over 15 µM.
Taken in the same sequence, the figures for `COc1cc2c(cc1OC)C(C(=O)Nc1ccc(C(F)(F)F)cc1)C(c1cccs1)N(C)C2=O` (stereo not given) were 2.34 µM and 3.05 µM.
The corresponding values for `Cc1ccc(N2C(=O)C(Cl)=C(Nc3ccccc3C)C2=O)c(C)c1` are over 15 µM and over 15 µM.
For `CC(Cc1ccccc1)NCCCCCCCCCNC(C)Cc1ccccc1` (stereo not given), the concentration giving a half-maximal response (EC50) in test [1] is 3.76 µM; in test [2] it was 1.17 µM.
Taken in the same sequence, the figures for `CCCCCn1c(=O)c2c(nc3n(-c4ccccc4OCC)c(C)cn23)n(C)c1=O` were over 15 µM and over 15 µM.
The corresponding values for `CCCOc1ccc(Oc2nc(NCC)nc(OC)n2)nn1` are 1.87 µM and 4.24 µM.
The corresponding values for `CN(CCO)CCCCOc1ccc2c(c1)C(=O)c1cc(OCCCCN(C)CCO)ccc1-2` are over 15 µM and 3.64 µM.
In the case of `O=C(NCCN1CCOCC1)C(=O)Nc1ccc(F)cc1F`, the EC50 in test [1] and in test [2] was over 15 µM throughout.
With `COc1cccc(C2=C(C(C)=O)Sc3nnc(C)n3N2C(C)=O)c1`, the values for the concentration giving a half-maximal response (EC50) in test [1] and in test [2] were 6.59 µM and 5.95 µM, respectively.
On to `CCc1nc2sc(C(c3cccc(F)c3)N3CCN(c4ccc(OC)cc4)CC3)c(O)n2n1` (stereo not given), for which the half-maximal effective concentration (EC50) in test [1] and in test [2] was over 15 µM each time.
For the compound `COCc1cc(CN2CCN(c3ccccc3OC)CC2)c(O)c2ncccc12`, the results for the EC50 in test [1] and in test [2] were 4.19 µM and 9.06 µM, respectively.
With `COC(=O)CNC(c1ccccc1)c1cc(Br)ccc1NC(=O)c1ccc(OC)cc1` (stereo not given), the EC50 in test [1] was determined as 4.22 µM; in test [2] it was 4.33 µM.
Taken in the same sequence, the figures for `Cc1ccc(C(=O)N2CCc3ccccc32)cc1Br` were over 15 µM and over 15 µM.
The corresponding values for `CSc1cccc(NC(=O)C2c3ccccc3C(=O)N(C3CCCC3)C2c2cccs2)c1` (stereo not given) are 0.578 µM and 0.949 µM.
Taken in the same sequence, the figures for `CSc1cccc(NC(=O)N2CCC(CO)(Cc3ccccc3Cl)CC2)c1` were over 15 µM and over 15 µM.
In the case of `Cc1cc(O)nc(Nc2nc(C)c3cccc(C)c3n2)n1`, the EC50 in test [1] and in test [2] was over 15 µM throughout.
Consider `O=[N+]([O-])c1ccc(S(=O)(=O)N2CCN(C3CCC(c4ccccc4)CC3)CC2)cc1` (stereo not given), for which the half-maximal effective concentration (EC50) in test [1] and in test [2] was over 15 µM each time.
For the compound `Cc1ccc(Oc2c(C(F)(F)F)oc3c(CN4CCN(C)CC4)c(O)ccc3c2=O)cc1`, the EC50 in test [1] stood at 1.43 µM; in test [2] it was 1.22 µM.
